Data taken from article PMC10892410, “[^18F]Fluspidine—A PET Tracer for Imaging of σ1 Receptors in the Central Nervous System” (Pharmaceuticals, 2024).
Where “and” joins values, the source holds several entries; their conditions need not be identical. Equal values may be shown once. Read-outs that look alike come from different tables or passages of the source.

Legend:
σ1 receptor [1] = assay: σ1 receptor affinity (receptor binding); conditions: ratio Ki(σ2)/Ki(σ1)
σ1 receptor [2] = conditions: cited from earlier work
σ2 receptor [3] = target: σ2 receptor; parameters: method as in PMID 22136765, PMID 21126878, PMID 21072511, PMID 19791807, PMID 21618432; conditions: cited from earlier work
[4] = cited from earlier work
σ1 receptor [5] = conditions: cited from earlier work; for uptake in the brain: i.v., female CD1-mice
[6] = rhesus monkey, in vivo; cited from earlier work
σ1 receptor [7] = conditions: cited from earlier work; for SUV120min p.i. as % of SUV5min p.i.: piglet brain; for SUV120min p.i. as % of SUV5min p.i. / whole-brain distribution volume VT: baseline; for VT, cerebellum / VT, colliculi / VT, cortex / VT, hippocampus / VT, midbrain / VT, striatum / VT, thalamus: piglet, Logan plot, baseline conditions, N = 3; for whole-brain distribution volume VT / decrease in VT upon SA 4503 blockade of σ1 receptors / standardized uptake value (SUV) in brain: piglets; for whole-brain distribution volume VT: two-tissue compartment modeling, metabolite-corrected plasma input; for decrease in VT upon SA 4503 blockade of σ1 receptors: whole brain, Logan plot analysis; for standardized uptake value (SUV) in brain: within 3 min after injection
σ1 receptor [8] = conditions: rhesus monkey, 1-tissue compartment model, baseline conditions, N = 1; cited from earlier work
[9] = pH 7.2; cited from earlier work
human serum albumin = human serum albumin (Homo sapiens, UniProt P02768); assay: plasma protein binding by HPLC on human serum albumin stationary phase; assay type: in vitro ADME; conditions: stationary phase coated with human serum albumin
Experimental: Plasma protein binding was recorded by HPLC analysis using a stationary phase coated with human serum albumin. The resulting retention times correlate with binding to human serum albumin [42].

[10] = metabolic stability with mouse liver microsomes and NADPH; conditions: LC-MS
Experimental: After an incubation period of 90 min, the amount of remaining test compound was determined by LC-MS [42, 43, 44].

[11] = logD7.4 by micro-shake flask method; assay type: physicochemical; conditions: n-octanol/MOPS buffer pH 7.4, determined by LC-MS
Experimental: The lipophilicity of the homologous fluoroalkyl derivatives 1–4 was determined by the micro-shake flask method. After the distribution of the compounds between an n-octanol layer and MOPS buffer (pH 7.4), the amount of the compound in the buffer layer was determined by mass spectrometry. The recorded logD7.4 values were compared with the logD7.2 values determined by the distribution of the analogous ^18F-labeled compounds [^18F]1–[^18F]4 between n-octanol and phosphate-buffered saline, pH 7.2. The logD7.2 values were calculated from the distribution of radioactivity in both layers.

σ1 receptor [12] = conditions: in Figure 5; cited from earlier work
σ2 receptor [13] = conditions: in Figure 5; cited from earlier work
σ1 receptor [14] = conditions: healthy volunteers and HD patients, therapeutic doses; cited from earlier work
dopamine D2/D3 receptors = conditions: healthy volunteers and HD patients; cited from earlier work
σ1 receptor [15] = conditions: cited from earlier work; for VT: healthy volunteers
[16] = racemic spirocyclic piperidines, read-out: Ki(σ1)
[17] = pure fluspidine enantiomers, read-out: Ki, σ1 receptor affinity

Chain of human serum albumin (P02768 25-609): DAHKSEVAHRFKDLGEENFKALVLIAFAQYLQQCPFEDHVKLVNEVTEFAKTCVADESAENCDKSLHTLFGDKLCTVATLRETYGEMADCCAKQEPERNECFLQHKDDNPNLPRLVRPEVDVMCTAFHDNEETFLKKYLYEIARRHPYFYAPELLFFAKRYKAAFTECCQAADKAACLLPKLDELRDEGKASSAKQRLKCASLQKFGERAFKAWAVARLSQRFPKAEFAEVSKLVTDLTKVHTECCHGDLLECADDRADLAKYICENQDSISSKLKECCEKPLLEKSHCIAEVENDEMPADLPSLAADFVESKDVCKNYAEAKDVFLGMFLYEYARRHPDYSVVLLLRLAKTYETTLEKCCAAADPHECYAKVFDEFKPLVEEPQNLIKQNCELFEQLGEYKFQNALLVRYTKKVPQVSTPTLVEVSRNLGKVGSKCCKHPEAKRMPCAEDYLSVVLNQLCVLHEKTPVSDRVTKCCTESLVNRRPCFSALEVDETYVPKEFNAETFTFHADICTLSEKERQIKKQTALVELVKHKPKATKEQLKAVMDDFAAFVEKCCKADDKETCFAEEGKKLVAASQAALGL

SMILES: CCCCCCCCN1CCC2(CC1)OC(CCF)c1ccccc12 (stereo not drawn) [compound 9]
- σ1/σ2 Selectivity (σ1 receptor [1]): 7.9
- Ki (σ1 receptor [2]; [16]): 15 nM
- Ki (σ2 receptor [3]): 0.118 µM

SMILES: FCCC1OC2(CCN(Cc3ccccc3)CC2)c2ccccc21 (racemic) [rac-[^18F]2]
- activity in brain due to unchanged radioligand ([4]; brains of CD-1 mice, 60 min after intravenous administration): 98%
- proportion of unchanged PET tracer in plasma ([4]; mouse, in vivo, iv): 75%
- uptake in the brain (σ1 receptor [5]; 5 min p.i.): 3.88 % ID/g
- uptake in the brain (σ1 receptor [5]; 30 min p.i.): 4.71 % ID/g
- uptake in the brain (σ1 receptor [5]; 120 min p.i.): 2.82 % ID/g
- Ratio of activity concentration, cerebellum vs. olfactory bulb (σ1 receptor [5]; mouse, 45 min p.i., N = 1): 1.75
- Ratio of activity concentration, cortex vs. olfactory bulb (σ1 receptor [5]; mouse, 45 min p.i., N = 1): 1.45
- Ratio of activity concentration, facial nucleus vs. olfactory bulb (σ1 receptor [5]; mouse, 45 min p.i., N = 1): 4.69
- Ratio of activity concentration, hippocampus vs. olfactory bulb (σ1 receptor [5]; mouse, 45 min p.i., N = 1): 1.21
- Ratio of activity concentration, striatum vs. olfactory bulb (σ1 receptor [5]; mouse, 45 min p.i., N = 1): 1.11
- Ratio of activity concentration, superficial grey layer of superior colliculus vs. olfactory bulb (σ1 receptor [5]; mouse, 45 min p.i., N = 1): 1.57
- Ratio of activity concentration, thalamus vs. olfactory bulb (σ1 receptor [5]; mouse, 45 min p.i., N = 1): 1.24

SMILES: [18F]CC[C@H]1OC2(CCN(Cc3ccccc3)CC2)c2ccccc21 [(R)-[^18F]2]
- fraction of unchanged PET tracer in plasma [6]: > 30%
- SUV120min p.i. as % of SUV5min p.i. (σ1 receptor [7]): ~ 80%
- VT, cerebellum (σ1 receptor [7]): 140 mL/g
- VT, colliculi (σ1 receptor [7]): 123 mL/g
- VT, cortex (σ1 receptor [7]): 67.8 to 98.4 mL/g
- VT, hippocampus (σ1 receptor [7]): 95.2 mL/g
- VT, midbrain (σ1 receptor [7]): 132 mL/g
- VT, striatum (σ1 receptor [7]): 100 mL/g
- VT, thalamus (σ1 receptor [7]): 106 mL/g
- whole-brain distribution volume VT (σ1 receptor [7]): 133 mL/g
- decrease in VT upon SA 4503 blockade of σ1 receptors (σ1 receptor [7]): −89%
- standardized uptake value (SUV) in brain (σ1 receptor [7]): about 2
- VT, amygdala (σ1 receptor [8]): 153 mL/g
- VT, caudate (σ1 receptor [8]): 181 mL/g
- VT, cerebellum (σ1 receptor [8]): 175 mL/g
- VT, cortex (σ1 receptor [8]): 174 to 291 mL/g
- VT, hippocampus (σ1 receptor [8]): 193 mL/g
- VT, putamen (σ1 receptor [8]): 199 mL/g
- VT, thalamus (σ1 receptor [8]): 128 mL/g

SMILES: FCC[C@H]1OC2(CCN(Cc3ccccc3)CC2)c2ccccc21 [(R)-2]
- Ki (σ1 receptor [2]; [17]): 0.57 nM

SMILES: FCCC1OC2(CCN(Cc3ccccc3)CC2)c2ccccc21 (stereo not drawn) [compound 2]
- σ1/σ2 Selectivity (σ1 receptor [1]): 1331
- logD7.2 PET Tracer [9]: 2.57 ± 0.32
- Ki (σ1 receptor [2]; [16]): 0.59 nM
- Ki (σ2 receptor [3]): 0.785 µM
- fraction unbound (human serum albumin): 0.12
- In Vitro Metabolism—Intact Compd. after 90 min [10]: 34% and 34 ± 8.8%
- logD [11]: 3.33 ± 0.07

SMILES: CCCCN1CCC2(CC1)OC(CCF)c1ccccc12 (stereo not drawn) [compound 8]
- σ1/σ2 Selectivity (σ1 receptor [1]): 225
- Ki (σ1 receptor [2]; [16]): 3.9 nM
- Ki (σ2 receptor [3]): 0.878 µM

SMILES: FCC1OC2(CCN(Cc3ccccc3)CC2)c2ccccc21 (stereo not drawn) [compound 1]
- σ1/σ2 Selectivity (σ1 receptor [1]): 743
- logD7.2 PET Tracer [9]: 2.39 ± 0.04
- Ki (σ1 receptor [2]; [16]): 0.74 nM
- Ki (σ2 receptor [3]): 0.55 µM
- fraction unbound (human serum albumin): 0.16
- In Vitro Metabolism—Intact Compd. after 90 min [10]: 53% and 53 ± 3.9%
- logD [11]: 2.8 ± 0.04

SMILES: FCC[C@@H]1OC2(CCN(Cc3ccccc3)CC2)c2ccccc21 [(S)-2]
- Ki (σ1 receptor [2]; [17]): 2.3 nM

SMILES: FCCC1OC2(CCN(Cc3ccc(F)cc3)CC2)c2ccccc21 (stereo not drawn) [compound 5]
- σ1/σ2 Selectivity (σ1 receptor [1]): 844
- Ki (σ1 receptor [2]; [16]): 0.57 nM
- Ki (σ2 receptor [3]): 0.481 µM

SMILES: COc1cc(CCN2CCN(CCCc3ccccc3)CC2)ccc1OCC[18F] [[^18F]FE-SA 4503]
- IC50 (σ1 receptor [12]): 6.5 nM
- IC50 (σ2 receptor [13]): 2.1 nM

SMILES: COc1cc(CCN2CCN(CCCc3ccccc3)CC2)ccc1OC[18F] [[^18F]FM-SA 4503]
- Ki (σ1 receptor [12]): 6.4 nM
- Ki (σ2 receptor [13]): 250 nM

SMILES: FCCC1OC2(CCN(CC3CCCCC3)CC2)c2ccccc21 (stereo not drawn) [compound 6]
- σ1/σ2 Selectivity (σ1 receptor [1]): 80
- Ki (σ1 receptor [2]; [16]): 0.71 nM
- Ki (σ2 receptor [3]): 0.057 µM

SMILES: CCCN1CCC(c2cccc(S(C)(=O)=O)c2)CC1 [pridopidine, 4-[3-(methylsulfonyl)phenyl]-1-propylpiperidine]
- binding to the σ1 receptor in the brain (occupancy study) (σ1 receptor [14]): selective binding
- occupancy of dopamine D2/D3 receptors (dopamine D2/D3 receptors): minimal occupancy

SMILES: COc1ccc(CCN2CCN(CCCc3ccccc3)CC2)cc1OC [cutamesine, 1-[2-(3,4-dimethoxyphenyl)ethyl]-4-(3-phenylpropyl)piperazine]
- IC50 (σ1 receptor [12]): 4.6 nM
- IC50 (σ2 receptor [13]): 63.1 nM

SMILES: FCCCCC1OC2(CCN(Cc3ccccc3)CC2)c2ccccc21 (stereo not drawn) [compound 4]
- σ1/σ2 Selectivity (σ1 receptor [1]): 408
- logD7.2 PET Tracer [9]: 3.11 ± 0.14
- Ki (σ1 receptor [2]; [16]): 1.2 nM
- Ki (σ2 receptor [3]): 0.489 µM
- fraction unbound (human serum albumin): 0.05
- In Vitro Metabolism—Intact Compd. after 90 min [10]: 28% and 28 ± 4.5%
- logD [11]: 3.71 ± 0.14

SMILES: FCCCC1OC2(CCN(Cc3ccccc3)CC2)c2ccccc21 (stereo not drawn) [compound 3]
- σ1/σ2 Selectivity (σ1 receptor [1]): 598
- logD7.2 PET Tracer [9]: 2.78 ± 0.06
- Ki (σ1 receptor [2]; [16]): 1.4 nM
- Ki (σ2 receptor [3]): 0.837 µM
- fraction unbound (human serum albumin): 0.09
- In Vitro Metabolism—Intact Compd. after 90 min [10]: 33% and 33 ± 7.9%
- logD [11]: 3.6 ± 0.12

SMILES: CC(C)=CCN1CCC2(CC1)OC(CCF)c1ccccc12 (stereo not drawn) [compound 10]
- Ki (σ1 receptor [2]; [16]): 1.5 nM
- Ki (σ2 receptor [3]; cells printed in µM): > 1 µM

SMILES: CC(c1ccccc1)N1CCC2(CC1)OC(CCF)c1ccccc12 (stereo not drawn) [compound 7]
- σ1/σ2 Selectivity (σ1 receptor [1]): >1000
- Ki (σ1 receptor [2]; [16]): 1 nM
- Ki (σ2 receptor [3]; cells printed in µM): > 1 µM

SMILES: [18F]CC[C@@H]1OC2(CCN(Cc3ccccc3)CC2)c2ccccc21 [(S)-[^18F]2]
- fraction of unchanged PET tracer in plasma [6]: > 30%
- SUV120min p.i. as % of SUV5min p.i. (σ1 receptor [7]): ~ 50%
- VT, cerebellum (σ1 receptor [7]): 14.8 mL/g
- VT, colliculi (σ1 receptor [7]): 15.2 mL/g
- VT, cortex (σ1 receptor [7]): 9.8 to 13.1 mL/g
- VT, hippocampus (σ1 receptor [7]): 13.5 mL/g
- VT, midbrain (σ1 receptor [7]): 15.4 mL/g
- VT, striatum (σ1 receptor [7]): 13.5 mL/g
- VT, thalamus (σ1 receptor [7]): 14.1 mL/g
- whole-brain distribution volume VT (σ1 receptor [7]): 13 mL/g
- decrease in VT upon SA 4503 blockade of σ1 receptors (σ1 receptor [7]): −55%
- standardized uptake value (SUV) in brain (σ1 receptor [7]): about 2
- VT (σ1 receptor [15]; frontal cortex): 21 mL/g
- VT (σ1 receptor [15]; striatum): 19 mL/g
- free fraction in blood plasma fp (σ1 receptor [15]; human): 0.023
- VT, amygdala (σ1 receptor [8]): 14.6 mL/g
- VT, caudate (σ1 receptor [8]): 13.5 mL/g
- VT, cerebellum (σ1 receptor [8]): 13.6 mL/g
- VT, cortex (σ1 receptor [8]): 14.6 to 19.6 mL/g
- VT, hippocampus (σ1 receptor [8]): 16.4 mL/g
- VT, putamen (σ1 receptor [8]): 14.9 mL/g
- VT, thalamus (σ1 receptor [8]): 12.2 mL/g
